Experimental data: US20090099217A1, “2-Aminopyrimidin-4-Ones And Their Use For Treating Or Preventing Alpha Beta-Related Pathologies” (ASTEX THERAPEUTICS LTD., priority 2006, published 2009)
Structures can show the parent of a compound that is named as a salt.

Biological target: T1, human β-Secretase (Homo sapiens, UniProt P56817)
T1 construct: The soluble part of the human β-Secretase (AA 1-AA 460) was cloned; Fc domain of IgG1 (C); made in house
Experiment: TR-FRET Assay
Type: biochemical
Details: sBACE-Fc enzyme 0.3 nM; substrate (Europium)CEVNLDAEFK(Qsy7) 100 nM; pH 4.5
Procedure: The enzyme used in the IGEN Cleavage-, Fluorescent-, TR-FRET- and the BiaCore assay is described as follows:
The soluble part of the human β-Secretase (AA 1-AA 460) was cloned into the ASP2-Fc10-1-IRES-GFP-neoK mammalian expression vector. The gene was fused to the Fc domain of IgG1 (affinity tag) and stably cloned into HEK 293 cells. Purified sBACE-Fc is stored in Tris buffer, pH 9.2 and has a purity of 95%.
Dilute the enzyme (truncated form) to 6 μg/mL (stock 1.3 mg/mL) and the substrate (Europium)CEVNLDAEFK(Qsy7) to 200 nM (stock 60 μM) in reaction buffer (NaAcetate, chaps, triton x-100, EDTA pH4.5). The Biomek FX is used for all liquid handling and the enzyme and substrate solutions are kept on ice until they are placed in Biomek FX. Enzyme (9 μl) is added to the plate then 1 μl of compound in dimethylsulphoxide is added, mixed and pre-incubated for 10 minutes. Substrate (10 μl) is then added, mixed and the reaction proceeds in the dark for 15 minutes at room temperature. The reaction is stopped with the addition of Stop solution (7 μl, NaAcetate pH 9). The fluorescence of the product is measured on a Victor II plate reader with an excitation wavelength of 340 nm and an emission wavelength of 615 nm. The assay is done in a Costar 384 well round bottom, low volume, non-binding surface (Corning #3676). […]

T1 sequence (P56817 22-460): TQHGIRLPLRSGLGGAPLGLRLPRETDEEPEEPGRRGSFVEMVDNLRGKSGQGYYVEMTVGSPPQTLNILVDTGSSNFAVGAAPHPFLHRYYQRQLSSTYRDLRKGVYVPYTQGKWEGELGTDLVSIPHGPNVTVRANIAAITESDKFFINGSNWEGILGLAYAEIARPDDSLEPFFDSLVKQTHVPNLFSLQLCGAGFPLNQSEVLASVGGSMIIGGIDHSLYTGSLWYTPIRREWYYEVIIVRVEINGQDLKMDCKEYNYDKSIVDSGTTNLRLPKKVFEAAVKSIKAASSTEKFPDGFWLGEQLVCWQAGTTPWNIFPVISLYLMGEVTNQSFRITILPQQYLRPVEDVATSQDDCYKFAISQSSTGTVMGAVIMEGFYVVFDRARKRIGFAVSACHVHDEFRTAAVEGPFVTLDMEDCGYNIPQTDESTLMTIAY

Row | IC50 | SMILES
1 | 114 nM | CN1C(=O)CC(C)(CCc2cccc(-c3ccnc(Cl)c3)c2)N=C1N (centres unmarked) [Example 20, 2-Amino-6-{2-[3-(2-chloropyridin-4-yl)phenyl]ethyl}-3,6-dimethyl-5,6-dihydropyrimidin-4(3H)-one hydrochloride]
2 | 316 nM | COc1cncc(-c2cccc(C3(C)CC(=O)N(C)C(N)=N3)c2)c1 (centres unmarked) [Example 21, 2-Amino-6-[3-(5-methoxypyridin-3-yl)phenyl]-3,6-dimethyl-5,6-dihydropyrimidin-4(3H)-one hydrochloride]
